Legend:
[1] = tested on: Burkitt lymphoma; conditions: single agent; cited from earlier work
[2] = tested on: Ku70; experiment: Immunoprecipitation of LSD1 or SIRT1 in KCL-22 cells to detect interaction with Ku70; assay type: cell-based
Description: IP of LSD1 or SIRT1 was carried out in KCL-22 cells to detect their interaction with Ku70, respectively. […] (B) Without and with treatment of 1 mM H2O2 for 1 h and 0.25 μM camptothecin (CPT) for 12 h. Flag was used for IP control.
To explore the mechanisms, Applicants used immunoprecipitation (IP) assay to examine SIRT1, LSD1 and Ku70 interaction.

[3] = tested on: KCL-22 CML cells; conditions: KCL-22 CML cells upon imatinib treatment; cited from earlier work
[4] = 2.5 μM imatinib (STI) for 24 and 48 h

Q: Which “sensitivity of Burkitt lymphoma” value [1] does the source give for `O=c1[nH]c(S)nc(-c2ccccc2)c1Cc1c(O)ccc2ccccc12` [cambinol, 5-[(2-hydroxy-1-naphthyl)methyl]-2-mercapto-6-phenyl-4(3H)-pyrimidinone] here?
A: The value was “sensitive”.

Q: With `CC[C@@]1(O)C(=O)OCc2c1cc1n(c2=O)Cc2cc3ccccc3nc2-1` [camptothecin] as the molecule, how does the “LSD1/SIRT1 interaction with Ku70” value ([2]; 0.25 μM camptothecin (CPT) for 12 h) read?
A: The value was “switch of LSD1/SIRT1 interaction with Ku70”.

Q: With `OO` [hydrogen peroxide] as the molecule, how does the “LSD1/SIRT1 interaction with Ku70” value ([2]; 1 mM H2O2 for 1 h) read?
A: The value was “switch of LSD1/SIRT1 interaction with Ku70”.

Q: What does the source list for `Cc1ccc(NC(=O)c2ccc(CN3CCN(C)CC3)cc2)cc1Nc1nccc(-c2cccnc2)n1` [imatinib]?
A: LSD1 interaction with Ku70 [2, 4]: reduced; SIRT1 interaction with Ku70 [2, 4]: rapidly enhanced; total SIRT1 level ([2]; 48 h drug treatment): partially reduced; acquisition of T315I BCR-ABL kinase domain mutation [3]: rapidly acquire T315I BCR-ABL kinase domain mutation

Source: US9987280B2, “SIRT1 inhibitors and stem cell rejuvenation” (City of Hope, priority 2013, dated 2018)
